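Briefly, cells in 96-well plates were exposed to five compound concentrations for 48 h, and endpoints were estimated by linear interpolation. The concentration for full growth arrest is given as TGI.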
Columns and labels:
Experiment in all cases: inhibition of tumour cell growth, NCI panel, 48 h
SW-620 colon = system: SW-620 colon
NCI-H522 lung = system: NCI-H522 lung
K-562 leukemia = system: K-562 leukemia
SR leukemia = system: SR leukemia
RXF 393 renal = system: RXF 393 renal
SNB-19 CNS = system: SNB-19 CNS
NCI-H226 lung = system: NCI-H226 lung
MDA-N = system: MDA-N
CCRF-CEM leukemia = system: CCRF-CEM leukemia
MDA-MB-435 = system: MDA-MB-435
OVCAR-4 ovarian = system: OVCAR-4 ovarian
UACC-62 melanoma = system: UACC-62 melanoma
SN12C renal = system: SN12C renal
COLO 205 colon = system: COLO 205 colon
EKVX NSCLC = system: EKVX NSCLC
HS 578T breast = system: HS 578T breast
ACHN renal = system: ACHN renal
M14 melanoma = system: M14 melanoma
PC-3 prostate = system: PC-3 prostate
T-47D breast = system: T-47D breast
A498 renal = system: A498 renal
SK-MEL-5 melanoma = system: SK-MEL-5 melanoma
786-0 renal = system: 786-0 renal
TK-10 renal = system: TK-10 renal
MDA-MB-231 breast = system: MDA-MB-231 breast
NCI-H460 lung = system: NCI-H460 lung
HOP-92 NSCLC = system: HOP-92 NSCLC
HCT-15 colon = system: HCT-15 colon
U251 CNS = system: U251 CNS
SK-MEL-28 melanoma = system: SK-MEL-28 melanoma
MALME-3M melanoma = system: MALME-3M melanoma
HT29 colon = system: HT29 colon
NCI/ADR-RES ovarian = system: NCI/ADR-RES ovarian
HL-60(TB) leukemia = system: HL-60(TB) leukemia
IGROV1 ovarian = system: IGROV1 ovarian
OVCAR-8 ovarian = system: OVCAR-8 ovarian
UACC-257 melanoma = system: UACC-257 melanoma
LOX IMVI melanoma = system: LOX IMVI melanoma
NCI-H23 lung = system: NCI-H23 lung
SF-295 CNS = system: SF-295 CNS
RPMI-8226 leukemia = system: RPMI-8226 leukemia
A549 NSCLC = system: A549 NSCLC
DU-145 prostate = system: DU-145 prostate
SNB-75 CNS = system: SNB-75 CNS
MCF7 breast = system: MCF7 breast
SK-OV-3 ovarian = system: SK-OV-3 ovarian
CAKI-1 renal = system: CAKI-1 renal
HOP-62 NSCLC = system: HOP-62 NSCLC
OVCAR-3 ovarian = system: OVCAR-3 ovarian
HCT-116 colon = system: HCT-116 colon
KM12 colon = system: KM12 colon
SF-268 CNS = system: SF-268 CNS
SK-MEL-2 melanoma = system: SK-MEL-2 melanoma
SF-539 CNS = system: SF-539 CNS
OVCAR-5 ovarian = system: OVCAR-5 ovarian
BT-549 breast = system: BT-549 breast
MOLT-4 leukemia = system: MOLT-4 leukemia

Measured: TGI

O=C(O)CNCP(=O)(O)O
> 100 µM: all assays above

Source: PubChem BioAssay (NCI)
